Key:
[1] = target: T1, Solute carrier organic anion transporter family member 1B3 (Homo sapiens, UniProt Q9NPD5); details: chinese hamster, cho, 10 µM
T1 sequence (Q9NPD5 whole entry): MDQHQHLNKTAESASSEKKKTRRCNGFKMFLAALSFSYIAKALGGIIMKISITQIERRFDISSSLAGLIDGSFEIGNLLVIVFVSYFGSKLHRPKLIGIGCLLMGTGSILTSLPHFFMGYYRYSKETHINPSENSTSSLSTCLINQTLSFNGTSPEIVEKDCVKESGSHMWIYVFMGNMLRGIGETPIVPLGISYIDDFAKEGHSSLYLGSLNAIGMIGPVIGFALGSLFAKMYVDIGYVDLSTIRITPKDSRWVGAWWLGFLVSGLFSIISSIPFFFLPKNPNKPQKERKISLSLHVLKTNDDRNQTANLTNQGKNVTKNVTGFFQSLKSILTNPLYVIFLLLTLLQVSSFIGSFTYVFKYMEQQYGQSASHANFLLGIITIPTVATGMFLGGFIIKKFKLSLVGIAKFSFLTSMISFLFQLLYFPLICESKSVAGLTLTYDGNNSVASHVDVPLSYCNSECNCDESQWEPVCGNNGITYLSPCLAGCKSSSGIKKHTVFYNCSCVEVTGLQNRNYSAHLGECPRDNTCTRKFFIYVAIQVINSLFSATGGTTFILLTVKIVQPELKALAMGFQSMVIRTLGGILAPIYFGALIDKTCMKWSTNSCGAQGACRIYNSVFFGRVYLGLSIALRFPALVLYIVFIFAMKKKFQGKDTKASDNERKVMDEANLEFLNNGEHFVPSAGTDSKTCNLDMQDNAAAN

[2] = target: T2, Solute carrier organic anion transporter family member 1B1 (Homo sapiens, UniProt Q9Y6L6); details: chinese hamster, cho, 10 µM
T2 sequence (Q9Y6L6 whole entry): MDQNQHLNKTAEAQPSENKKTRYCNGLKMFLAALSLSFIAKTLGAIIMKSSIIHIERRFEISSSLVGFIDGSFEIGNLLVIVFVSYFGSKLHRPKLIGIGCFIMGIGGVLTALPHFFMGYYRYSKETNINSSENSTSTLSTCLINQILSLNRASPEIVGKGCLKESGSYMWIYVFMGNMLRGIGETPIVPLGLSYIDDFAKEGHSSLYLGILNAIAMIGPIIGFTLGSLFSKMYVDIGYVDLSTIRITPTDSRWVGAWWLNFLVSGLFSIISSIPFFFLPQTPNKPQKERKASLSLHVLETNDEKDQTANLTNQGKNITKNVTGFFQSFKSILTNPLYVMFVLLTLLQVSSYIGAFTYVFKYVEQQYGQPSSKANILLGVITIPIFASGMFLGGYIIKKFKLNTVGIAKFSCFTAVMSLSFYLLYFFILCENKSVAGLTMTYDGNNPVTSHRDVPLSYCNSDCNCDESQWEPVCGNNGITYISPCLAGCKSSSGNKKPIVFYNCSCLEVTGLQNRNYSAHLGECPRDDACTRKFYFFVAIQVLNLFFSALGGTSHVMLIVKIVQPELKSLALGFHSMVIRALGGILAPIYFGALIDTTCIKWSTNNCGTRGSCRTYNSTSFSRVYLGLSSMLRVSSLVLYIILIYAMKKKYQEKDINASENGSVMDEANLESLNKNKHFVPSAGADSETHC

## CCCCCNC(=N)N/N=C/c1c[nH]c2ccc(OC)cc12.O=C(O)/C=C\C(=O)O [TEGASEROD MALEATE]
[1]
  residual activity: 112.9%
[2]
  residual activity: 73.16%

## CCOc1nc2cccc(C(=O)OC(C)OC(=O)OC3CCCCC3)c2n1Cc1ccc(-c2ccccc2-c2nnn[nH]2)cc1 (centres undefined) [CANDESARTAN CILEXETIL]
[1]
  residual activity: 5.967%
[2]
  residual activity: 10.55%

## C[C@H]1[C@H](C)CC[C@@]23CC[C@]4(C)[C@@](C=C[C@@H]5[C@@]6(C)CC[C@H](O)C(C)(C)[C@@H]6CC[C@]54C)(OC2=O)[C@H]13
[1]
  residual activity: 98.51%
[2]
  residual activity: 114.4%

## CC[C@@]1(O)C[C@H](O[C@H]2C[C@H](N(C)C)[C@H](O)[C@H](C)O2)c2c(cc3c(c2O)C(=O)c2c(O)ccc(O)c2C3=O)[C@H]1C(=O)OC [PYRROMYCIN]
[1]
  residual activity: 81.89%
[2]
  residual activity: 90.45%

## CN(C)c1ccc(C(=C2C=CC(=[N+](C)C)C=C2)c2ccc(N(C)C)cc2)cc1.[Cl-] [GENTIAN VIOLET]
[1]
  residual activity: 92.5%
[2]
  residual activity: 109.6%

## CC(=O)Oc1cccc2c1C(=O)c1c(OC(C)=O)cc(C(=O)O)cc1C2=O [DIACEREIN]
[1]
  residual activity: 86.69%
[2]
  residual activity: 72.58%

## CCN(CC)CCOc1ccc(C(=C(Cl)c2ccccc2)c2ccccc2)cc1 [CLOMIPHENE]
[1]
  residual activity: 126.3%
[2]
  residual activity: 99.41%

## O=c1[nH]c2ccccc2n1C1CCN(CCCC(c2ccc(F)cc2)c2ccc(F)cc2)CC1 [PIMOZIDE]
[1]
  residual activity: 121.7%
[2]
  residual activity: 167.9%

## COC(=O)Nc1nc2ccc(C(=O)c3ccccc3)cc2[nH]1 [MEBENDAZOLE]
[1]
  residual activity: 99%
[2]
  residual activity: 159.5%

## C[C@]12CCC3c4ccc(OC(=O)c5ccccc5)cc4CCC3C1CCC2=O (some centres undefined) [ESTRONE BENZOATE]
[1]
  residual activity: 95.01%
[2]
  residual activity: 121%

## c1ccc2c(c1)[nH]c1cnccc12 [NORHARMANE]
[1]
  residual activity: 87.66%
[2]
  residual activity: 95.1%

## NC(C(=O)O)C(O)C(=O)O (racemic) [d,l-threo-3-HYDROXYASPARTIC ACID]
[1]
  residual activity: 82.91%
[2]
  residual activity: 70.17%

## COc1c(O)cccc1O [2-METHOXYRESORCINOL]
[1]
  residual activity: 98.72%
[2]
  residual activity: 95.14%

## C[C@@H]([C@H]1OC(C)(C)[C@@H](O)[C@H]1O)[C@@H]1CC[C@]2(C)C3=CC[C@H]4C(C)(C)C(=O)CC[C@]4(C)[C@H]3CC[C@@]12C
[1]
  residual activity: 98.76%
[2]
  residual activity: 77.68%

## COc1ccc(-c2coc3c(O)c(OC)ccc3c2=O)cc1 [RETUSIN 7-METHYL ETHER]
[1]
  residual activity: 107.3%
[2]
  residual activity: 126.8%

## CN(C)CCCN1c2ccccc2CCc2ccccc21.Cl [IMIPRAMINE HYDROCHLORIDE]
[1]
  residual activity: 92.77%
[2]
  residual activity: 61.55%

## Cc1nccc2c1[nH]c1cc(O)ccc12.Cl [HARMOL HYDROCHLORIDE]
[1]
  residual activity: 124.7%
[2]
  residual activity: 91.2%

## COc1cc([S+](C)[O-])ccc1-c1nc2ncccc2[nH]1 (centres undefined) [SULMAZOLE]
[1]
  residual activity: 116.5%
[2]
  residual activity: 107.4%

## COc1ccc2c(c1)c(CC(=O)OCC(=O)O)c(C)n2C(=O)c1ccc(Cl)cc1 [ACEMETACIN]
[1]
  residual activity: 84.99%
[2]
  residual activity: 57.75%

## CCc1cccc(CC)c1N(COC)C(=O)CCl [ALACHLOR]
[1]
  residual activity: 105%
[2]
  residual activity: 103.5%

## CN1Cc2c(N)cccc2C(c2ccccc2)C1.O=C(O)/C=C\C(=O)O (centres undefined) [NOMIFENSINE MALEATE]
[1]
  residual activity: 79.07%
[2]
  residual activity: 59.46%

## CC1=C(O)C(=O)C=C2C1=CC=C1[C@@]2(C)CC[C@@]2(C)[C@@H]3C[C@](C)(C(=O)O)CC[C@]3(C)CC[C@]12C [CELASTROL]
[1]
  residual activity: 90.72%
[2]
  residual activity: 147.4%

## CC(=O)N[C@@H](CC(=O)O)C(=O)O
[1]
  residual activity: 103.6%
[2]
  residual activity: 127.8163%

## CC1(C)[C@H](O)C[C@H](O)[C@]2(C)[C@H]3CC[C@@]4(C)[C@H](c5ccoc5)OC(=O)[C@H]5O[C@]54[C@]3(C)C(=O)C[C@@H]12
[1]
  residual activity: 93.94%
[2]
  residual activity: 48.25%

## COc1cc2ccc(=O)oc2c(OC)c1OC [FRAXIDIN METHYL ETHER]
[1]
  residual activity: 92.79%
[2]
  residual activity: 92.39%

## CCOC(=O)c1c(C)cc(O)cc1O [ORSELLINIC ACID, ETHYL ESTER]
[1]
  residual activity: 105.8%
[2]
  residual activity: 116.8%

## O=C(/C=C/c1ccc(O)cc1)c1ccc(O)cc1O [ISOLIQUIRITIGENIN]
[1]
  residual activity: 119.2%
[2]
  residual activity: 210.9%

## Nc1ccc(S(N)(=O)=O)cc1 [SULFANILAMIDE]
[1]
  residual activity: 155.8%
[2]
  residual activity: 113.8%

## Cc1ccc2c(c1)CC[C@H]1CC(=O)CC[C@]21C [13-METHYL-4,4-BISNOR-8,11,13-PODOCARPATRIEN-3-ONE]
[1]
  residual activity: 93.8%
[2]
  residual activity: 162.9%

## CCCCCCCCCCCC[C@@H](C(=O)O)[C@H](C)C(=O)O
[1]
  residual activity: 61.85%
[2]
  residual activity: 76.63%

## CC(C)Nc1nc(Cl)nc(NC(C)C)n1 [PROPAZINE]
[1]
  residual activity: 91.55%
[2]
  residual activity: 110.4%

## CN(C)CCC[C@@]1(c2ccc(F)cc2)OCc2cc(C#N)ccc21.O=C(O)C(=O)O [ESCITALOPRAM OXALATE]
[1]
  residual activity: 117.8%
[2]
  residual activity: 102.3%

## CCOc1ccc(C(=O)c2ccc(O)c(O)c2O)cc1 [2,3,4-TRIHYDROXY-4'-ETHOXYBENZOPHENONE]
[1]
  residual activity: 99.48%
[2]
  residual activity: 134.1%

## COC(=O)[C@@]1(C)CCC[C@]2(C)c3ccc(O)c(C(C)C)c3CC[C@@H]12
[1]
  residual activity: 122.1%
[2]
  residual activity: 90.51%

## CCCN(CCC)S(=O)(=O)c1ccc(C(=O)O)cc1 [PROBENECID]
[1]
  residual activity: 89.44%
[2]
  residual activity: 81.99%

## C/C=C(/C(=C/C)c1ccc(O)cc1)c1ccc(O)cc1 [DIENESTROL]
[1]
  residual activity: 61.94%
[2]
  residual activity: 48.7%

## COc1cc2c(cc1OC)C1C(=O)c3c(cc4c(c3O)C=CC(C)(C)O4)OC1CO2 (stereo not drawn) [beta-TOXICAROL]
[1]
  residual activity: 70.52%
[2]
  residual activity: 67.84%

## CC1(C)O[C@H]2CC(=O)OC[C@]23[C@H]2CC[C@@]4(C)[C@H](c5ccoc5)OC(=O)[C@H]5O[C@]54[C@]2(C)C(=O)C[C@@H]13 [LIMONIN]
[1]
  residual activity: 92.09%
[2]
  residual activity: 102.2%

## O=C([O-])CF.[Na+] [SODIUM FLUOROACETATE]
[1]
  residual activity: 104.2%
[2]
  residual activity: 112.7%

## COc1ccc(CCC(=O)c2c(O)cc(O[C@@H]3O[C@H](CO)[C@@H](O)[C@H](O)[C@H]3O[C@@H]3O[C@@H](C)[C@H](O)[C@@H](O)[C@H]3O)cc2O)cc1O [NEOHESPERIDIN DIHYDROCHALCONE]
[1]
  residual activity: 198.2%
[2]
  residual activity: 53.61%

## COc1ccc(C(=O)CC(=O)c2ccc(C(C)(C)C)cc2)cc1 [AVOBENZONE]
[1]
  residual activity: 103%
[2]
  residual activity: 124%

## O=c1c(O)c(-c2ccccc2)oc2cc(O)ccc12 [3,7-DIHYDROXYFLAVONE]
[1]
  residual activity: 120.8%
[2]
  residual activity: 151.5%

## C[C@]12CC[C@H]3C(=CCc4cc(O)ccc43)[C@@H]1CCC2=O [EQUILIN]
[1]
  residual activity: 96.05%
[2]
  residual activity: 88.55%

## C/C=C(/C)C(=O)O[C@@H]1Cc2c(ccc3ccc(=O)oc23)OC1(C)C [JATAMANSIN]
[1]
  residual activity: 153%
[2]
  residual activity: 165.1%

## Cl.O=c1n(CCCN2CCN(c3cccc(Cl)c3)CC2)nc2ccccn12 [TRAZODONE HYDROCHLORIDE]
[1]
  residual activity: 111.6%
[2]
  residual activity: 98.06%

## Cl.N[C@H]1C(O)O[C@H](CO)[C@@H](O)[C@@H]1O (some centres undefined) [GLUCOSAMINE HYDROCHLORIDE]
[1]
  residual activity: 87.62%
[2]
  residual activity: 60.72%

## COC(=O)CC[C@@H](C)[C@H]1CC[C@H]2[C@@H]3CC[C@@H]4C[C@H](O)CC[C@]4(C)[C@H]3C[C@H](O)[C@]12C [METHYL DEOXYCHOLATE]
[1]
  residual activity: 71.46%
[2]
  residual activity: 62.17%

— ChEMBL document CHEMBL3039007, “Structure-based identification of OATP1B1/3 inhibitors” (Mol Pharmacol, 2013)
